Measurements published in patent publication US5164414A, “Use of N-myristoyl-(S)-phenylalanine for the treatment of diseases involving myristoylation” (Adir Et Compagnie, priority 1990, dated 1992).
Entries after “also recorded” stand apart in the source; their conditions may differ.

Tests used:
HL 60 cells = experiment: Cytotoxicity, colorimetric test (ALLEY et al.), HL 60; assay type: cell-based, human; conditions: for IC50: Homo sapiens, HL-60, concentration inhibiting 50% of cell growth, 9 concentrations
Procedure: (§1) The cytotoxicity of the compounds is assessed using the calorimetric test described by ALLEY et al. (Cancer Res., (1988) 48, 589-601). This automated test is routinely used on 2 cell lines: L 1210 (mouse leukemia) and HL 60 (human promyelocyte). On each of these lines, the cytotoxicity is assessed using 9 concentrations of the compounds. The IC50 is the concentration inhibiting 50% of cell growth.

L 1210 cells = experiment: Cytotoxicity, colorimetric test (ALLEY et al.), L 1210; assay type: cell-based, mouse; conditions: for IC50: Mus musculus, L1210, concentration inhibiting 50% of cell growth, 9 concentrations
Procedure: as §1

[1] = target: T1, N-myristoyltransferase (NMT) (Mus musculus, UniProt O70310); experiment: Inhibition of N-myristoyltransferase (NMT) solubilized from L 1210 microsomes, in competition with peptide substrate G8R; assay type: biochemical, murine (L 1210); conditions: for IC50: NMT from L 1210 microsomes, peptide substrate G8R, 10 min at 37° C.
T1 construct: The supernatant comprises the whole of the NMT activity present in the L 1210 microsomes; endogenous in cells; host or cells: L 1210 murine leukemia cells; Triton 770-solubilized microsomes (105,000 g supernatant)
T1 sequence (O70310 1-496): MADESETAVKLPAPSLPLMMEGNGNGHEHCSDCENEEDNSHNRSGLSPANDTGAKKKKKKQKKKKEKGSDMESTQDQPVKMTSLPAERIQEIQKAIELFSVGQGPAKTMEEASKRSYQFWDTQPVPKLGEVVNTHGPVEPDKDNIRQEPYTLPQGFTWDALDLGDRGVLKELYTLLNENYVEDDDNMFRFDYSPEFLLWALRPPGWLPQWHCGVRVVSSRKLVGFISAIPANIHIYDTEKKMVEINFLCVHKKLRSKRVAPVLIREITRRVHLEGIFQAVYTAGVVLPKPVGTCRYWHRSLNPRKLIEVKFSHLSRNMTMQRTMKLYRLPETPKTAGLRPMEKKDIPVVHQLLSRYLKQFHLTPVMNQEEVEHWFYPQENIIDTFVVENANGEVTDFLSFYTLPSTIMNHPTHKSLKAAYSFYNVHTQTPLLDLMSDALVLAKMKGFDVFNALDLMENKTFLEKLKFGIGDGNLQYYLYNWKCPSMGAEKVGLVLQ
Procedure: Leukemic cells of murine origin (L 1210) are cultured in 500- to 1000-ml roller bottles in a medium comprising: RPMI 1640 medium (Gibco); 10% fetal calf serum; 50 units/ml of penicillin; 50 μM streptomycin; 2 mM glutamine; and 10 mM HEPES (Gibco). The cells grow with continuous agitation at 37° C. in an atmosphere of 5% CO2 /95% air. The cells are collected and washed. The final pellet, typically containing 2.5×10^11 cells is resuspended in a lysis buffer [50 mM Tris, pH 7.9; 1 mM DTT; 1 mM EDTA; and 250 mM sucrose]. The cells are lysed and homogenized. The microsomes (vesiculated endoplasmic reticulum) are collected by centrifugation at 105,000 g as a pellet.
NMT is a membrane enzyme. To solubilize this enzyme, this suspension is then diluted to 2/3 in a solubilization buffer [50 mM HEPES, pH 7.5, 1 mM EDTA, 1 mM DTT, 10% glycerol and 3% Triton 770] and maintained for 30 min at 4° C. with stirring. This suspension is then centrifuged again at 105,000 g for 75 min. The material insoluble in the detergent sediments as a pellet. The supernatant comprises the whole of the NMT activity present in the L 1210 microsomes.
The compounds are then tested on the supernatant in competition with the peptide substrate Gly-Asn-(Ala)4 -(Arg)2 ("G8R") according to the conditions which follow, as described by TOWLER et al. (PNAS, (1987), 84, 2708-2711). Myristoylcoenzyme A is synthesized enzymatically immediately before use by incubation of myristate with ATP, Coenzyme A (lithium salt) and Pseudomonas Acyl-Coa synthetase (20 min at 30° C.). The peptide substrate and the biological source as obtained above are then added. The mixture is incubated for 10 min at 37° C.; the reaction is then stopped with 110 μl of methanol and 10 μl of trichloroacetic acid. The medium is left at 4° C. for 10 min and then centrifuged at 10,000 g for 5 min. An aliquot (30 μl) of the final supernatant is injected into an HPLC system equipped with a μBondapak column (Waters) and developed with a linear gradient as described by Towler et al. (PNAS, (1987), 84, 2708-11). Detection of the acylated peptide is performed using a radioactive line detector (Berthold) by means of the addition of 5 ml/min of scintillation fluid (Zinsser). The acylated peptide is eluted at 85% acetonitrile-TFA/15% H20-TFA.
The compounds tested as inhibitors are suspended in a 0.1% solution of Triton 770 after a brief sonication in the cold state. 10 μl of the solution of inhibitor are added to the reaction medium. The experimental conditions are identical to those described above. The activity of the compound is evaluated on the basis of the decrease in control activity, incubated under the same conditions but in the presence of the solution of suspension.

[2] = compared with N-myristoylglycine

IC50 [1] [mM] | activity greater than that measured for N-myristoylglycine ([1]; ratio of IC50 versus N-myristoylglycine) | Structure (SMILES) | IC50 (HL 60 cells) [µM] | cytotoxicity on HL 60 cells (in words) (HL 60 cells; [2]) | IC50 (L 1210 cells) [µM] | cytotoxicity on L 1210 cells (in words) (L 1210 cells; [2]) | inhibition of NMT activity (in words) ([1]; enzyme extracted from L 1210 cells)
0.2 | 15 -fold | CCCCCCCCCCCCCC(=O)N[C@@H](Cc1ccccc1)C(=O)O [N-myristoyl-(S)-phenylalanine] | 12.8 | markedly greater than that due to N-myristoylglycine; also recorded: markedly greater cytotoxicity than N-myristoylglycine | 29.5 | markedly greater than that due to N-myristoylglycine; also recorded: markedly greater cytotoxicity than N-myristoylglycine | strongly inhibits its activity; also recorded: markedly greater inhibition of the activity of this enzyme than the use of compounds described in the prior art
3 | – | CCCCCCCCCCCCCC(=O)NCC(=O)O [N-myristoylglycine, reference compound] | 20.5 | – | 48.4 | – | –
